Laboratory results: patent publication US5304474A, “Hydrophobic peptide esters and amides” (Board of Regents, The University of Texas System, priority 1991, dated 1994)
Entries after “also recorded” stand apart in the source; their conditions may differ.

Key:
spleen cells = assay: Spleen cell H-2 phenotype of transplanted mice (chimerism); type: in vivo, B6→B6D2F1 mice; conditions: recipients of treated cells, up to 275 d after transplantation
Procedure: Spleen cells from control mice (normal B6 or B6D2F1) and long-term BMTx survivors (B6→B6D2F1) were depleted of B cells by panning on goat anti-mouse immunoglobulin-coated petri dishes (15). Aliquots of B cell-depleted spleen cells were incubated either with antibody 30-5-7.S (anti-L^d), antibody 28-18-3.S (anti-k^b), or with a relevant isotype control antibody for 30 min at 4° C. Cells were then washed and incubated with a fluorescein isothiocyanate-labeled goat anti-mouse immunoglobulin (GAMIG-FITC, Cappell Laboratories, Cochranville, Pa.) and analyzed on a flow cytometer (Ortho system 50 HH, Ortho Diagnostics, Raritan, N.J.).
To see whether the donor hemopoietic system remained dominant over that of the irradiated recipient, we characterized the H-2 phenotype of spleen cells from the mice used in the survival experiments at various times after transplantation. Spleen cells from normal B6 (donor, H-2^b) and B6D2F1 (recipient, H-2^b /H-2^d) mice served as controls.

NK cells = assay: Loss of NK cells from PBM, anti-NK (leu 11b) staining; type: cell-based, human; conditions: 15 minute exposure, 2 hours at 37° C. (FIG. 6)
Procedure: (§1) In the experiments depicted in FIG. 6, freshly isolated PBM (2.5×10^6 /ml PBS and 1g/l glucose) were incubated at room temperature with varying concentrations of Leu-Leu-OMe. After a 15 minute exposure to this compound, the cells were washed, incubated for 2 hours at 37° C. and then assessed for the percentage of remaining viable cells which were stained by anti-MP or anti-NK monoclonal antibodies. Preincubation with greater than 25-50 micromola Leu-Leu-OMe led to loss of NK cells.
(§2) Anti-MP monoclonal antibodies (63D3) and anti-NK monoclonal antibodies (leu 11b) were obtained from Becton Dickinson Monoclonal Center, lnc., Mountain View, Cal. The antibody staining and Fluorescence Activated Cell Sorter (FACS) procedure was that of Rosenberg et al. (1981) (J. Immunol. V 126, p 1473). Data are expressed as percent of antibody staining in control cells (mean±SEM, n=4).

[1] = test system: mononuclear phagocytes (MP); assay: Loss of MP from PBM, anti-MP (63D3) staining; type: cell-based, human; conditions: 15 minute exposure, 2 hours at 37° C. (FIG. 6)
Procedure: as §1, §2

[2] = test system: graft vs. host disease (GVHD); assay: Murine bone marrow transplantation, donor inoculum treated in vitro: survival and GVHD; type: in vivo, B6→B6D2F1 mice
Procedure: Female, 8-16-wk-old, C57BL/6J (B6) and (C57BL/6J x DBA/2J)F1 mice (B6D2F1) were used as donors and recipients, respectively. For some experiments B6 donors were […] 70×10^6 cells/ml either in phosphate-buffered saline (PBS) or in Leu-Leu-OMe dissolved in PBS. Leu-Leu-OMe was synthesized from leucyl-leucine as previously described (10). After a 15 min incubation at room temperature, the cells were washed once, suspended in Hanks' balanced salt solution, counted, and infused via a lateral tail vein into irradiated (950 cGy) F1 recipients.
Survival times were measured from the day of transplantation to the day of death. Deaths occurring within 8 d of transplantation were considered to be the result of radiation-induced gastroenteritis and were excluded. The nonparametric Mann-Whitney test was used to determine whether the median survival times (MST) differed between groups (14).
Organs of recipient mice were fixed in 10% buffered formalin. Sections were stained with Hematoxylin and Eosin.

CTL precursors = assay: Elimination of cytotoxic T lymphocytes (6 day MLC, lysis of allogeneic stimulator lymphoblasts); type: cell-based, human
Procedure: Experiments were also designed to assess the relative sensitivity of NK and CTL to Leu-Leu-OMe. In the studies detailed in FIGS. 8 and 9, cytotoxicity assays were performed over a broad range of E:T ratios and units of lytic activity arising from equal numbers of responding lymphocytes were calculated and compared. […] Only after exposure to greater than 250 micromolar Leu-Leu-OMe were all CTL precursors eliminated.
Non-adherent lymphocytes (2.5×10^6 /ml) were incubated with the indicated concentrations of Leu-Leu-OMe for 15 minutes. Cells were then washed and either placed in mixed lymphocyte culture or assayed for specific lysis of K562 cells (NK). After 6 day MLC, cells were assayed for specific lysis of allogeneic stimulator lymphoblasts (CTL) or K562 (AcNK). Data are expressed as percent of control lytic units (mean+SEM, n=6).
Both values were also higher than the mean concentration of Leu-Leu-OMe required to diminish spontaneous NK lytic activity by 75% (35 micromolar±4 micromolar). […] Thus, only after MLC activation did CTL display a sensitivity to Leu-Leu-OMe toxicity that was equal to that of NK cells.

[3] = test system: splenic NK function (YAC-1 tumor targets); assay: Spleen cell NK function against YAC-1 after tail-vein injection; type: in vivo, C3H/HeJ mice
Procedure: Leu-Leu-OMe or Leu-Phe-OMe were suspended in PBS, pH 7.4. Then individual C3H/HeJ mice (25 gram size) were administered by tail-vein injection either 2.5×10^-5 moles (6.5 mg) of Leu-Leu-OMe, 2.5×10^-5 moles (7.1 mg) Leu-Phe-OMe, or an equal volume of the PBS diluent, this dose being about 1×10^-3 moles per kg. […] Subsequent to this quiescent period no difference in activity or appearance in the mice was noted. Two hours post-injection, the mice were sacrificed and their spleen cells were assayed for NK function in a standard 4 hour assay against YAC-1 tumor targets. In all mice, total cell recovery ranged […] spleen cells per animal. […] Thus, Leu-Leu-OMe or Leu-Phe-OMe caused a greater than 75% decrease in splenic lytic activity against YAC-1 tumor targets.

[4] = test system: natural killer cells (NK); assay: NK function: lysis of K562 target cells (51Cr release) after preincubation of lymphocytes with compound
[5] = 100 micromolar, 15 minutes (FIG. 8)

With `COC(=O)[C@H](CC(C)C)NC(=O)[C@@H](N)CC(C)C` [Leu-Leu-OMe, L-leucyl-L-leucine methyl ester] the “reactivity of spleen cells with anti-H-2^b” value (spleen cells) was > 95%, the “reactivity of spleen cells with anti-H-2^d” value (spleen cells) was < 1% and the “preincubation concentration leading to loss of NK cells” value (NK cells) was 25 to 50 µM. For the same molecule, the “loss of MP from PBM, in words” value [1] was “did not deplete MP from PBM; also recorded: higher concentrations of Leu-Leu-OMe caused loss of MP”, the GVHD-mediated tissue injury ([2]; 25×10^6 cells treated with 250 micro-M) was “had no evidence of cutaneous GVHD” and the GVHD-mediated tissue injury ([2]; 25×10^6 donor cells treated with 125 micro-M) was “manifested evidence of acute GVHD, although at somewhat diminished intensity”. For the same molecule, the GVHD-mediated tissue injury ([2]; 50×10^6 treated cells) was “manifested acute cutaneous GVHD”, the “mice surviving >90 d (long-term survivors)” value ([2]; immune donors, 37×10^6 donor cells treated with 250 micro-M) was “three of nine” and the “median survival time (MST)” value ([2]; immune donors, 37×10^6 donor cells treated with 250 micro-M, untreated 11 d) was 49 days. The “median survival time (MST)” value ([2]; naive donors, 25×10^6 donor cells treated with 125 micro-M, untreated 19 d) was 41.5 days, the “survival of all recipients” value ([2]; naive donors, 25×10^6 donor cells treated with 250 micro-M, untreated MST 19 d) was > 120 days and the “survival of all recipients” value ([2]; naive donors, 50×10^6 donor cells treated with 250 micro-M, untreated MST 14 d) was > 200 days. The “CTL precursors still present, of control levels” value (CTL precursors; [5]) was “greater than 50%”, the “concentration above which all CTL precursors eliminated” value (CTL precursors; 15 minutes (FIG. 8)) was “greater than 250 micromolar” and the “sensitivity of CTL and AcNK following activation” value (CTL precursors; after 6 day MLC, 15 minutes incubation (FIG. 9)) was “became identical in sensitivity to Leu-Leu-OMe”. The “mean concentration required to diminish lytic activity by 75%” value (CTL precursors; elimination of CTL precursors) was 123 ± 25 µM, the “Percent lysis of target cells” value ([3]; E:T 25:1, 2.5×10^-5 moles per mouse tail-vein, 2 hours post-injection, Control 8.29) was 2.37% and the “Percent lysis of target cells” value ([3]; E:T 50:1, same dosing, Control 12.88) was 4.58%. For the same molecule, the “Percent lysis of target cells” value ([3]; E:T 100:1, same dosing, Control 20.60) was 7.12%, the “Percent lysis of target cells” value ([3]; E:T 200:1, same dosing, Control 29.29) was 12.77% and the “decrease in splenic lytic activity against YAC-1 tumor targets” value ([3]; about 1×10^-3 moles per kg tail-vein) was “greater than 75%”. For the same molecule, the “NK Function % Specific Lysis K562” value ([4]; 12.50 micro-M, Nil 66 (Table 14)) was 60%, the “NK Function % Specific Lysis K562” value ([4]; 25.00 micro-M, Nil 66 (Table 14)) was 12% and the “NK Function % Specific Lysis K562” value ([4]; 50 micro-M, Nil 40.8 (Table 16)) was 1.1%. The “NK Function % Specific Lysis K562” value ([4]; 50.00 micro-M, Nil 66 (Table 14)) was 2%, the “NK Function % Specific Lysis K562” value ([4]; 100.00 micro-M, Nil 66 (Table 14)) was < 1% and the “spontaneous NK lytic units” value [4, 5] was “totally eliminated”. For the same molecule, the “concentration resulting in loss of K562 target binding and complete depletion of Leu 11b stained cells” value ([4]; MP-depleted lymphocytes) was “greater than 50 micromolar”, the “concentration above which no NK function could be detected” value ([4]; MP-depleted lymphocytes, 15 minutes room temperature (FIG. 4)) was “greater than 50 micromolar” and the “Leu--Leu--OMe Sensitivity (LD50)” value ([4]; NK Cells) was 35 micro-M. For the same molecule, the “concentration causing maximal depletion of NK” value ([4]; antibody staining (FIG. 6) and functional studies (FIG. 4)) was 100 µM, the “NK Toxicity (LD50)” value ([4]; concentration which results in 50% loss of human NK function, PBL 15 minutes at 22° C.) was 35 micro-M and the “concentration in excess of which NK toxic effects are seen” value ([4]; lymphocytes exposed 15 minutes at room temperature) was > 12.5 micro-M. For the same molecule, the “mean concentration required to diminish lytic activity by 75%” value ([4]; spontaneous NK) was 35 µM.
